The values below are quoted from earlier work in patent US11166956B2, “Combinations of PDE1 inhibitors and NEP inhibitors” (INTRA-CELLULAR THERAPIES, INC., priority 2014, dated 2021).

One data set deals with NEP (Homo sapiens, UniProt P08473).
For another data set, the system named is NEP and ACE. Conditions: clinical studies.

Structures are written as SMILES.

Sequence of NEP (P08473 whole entry): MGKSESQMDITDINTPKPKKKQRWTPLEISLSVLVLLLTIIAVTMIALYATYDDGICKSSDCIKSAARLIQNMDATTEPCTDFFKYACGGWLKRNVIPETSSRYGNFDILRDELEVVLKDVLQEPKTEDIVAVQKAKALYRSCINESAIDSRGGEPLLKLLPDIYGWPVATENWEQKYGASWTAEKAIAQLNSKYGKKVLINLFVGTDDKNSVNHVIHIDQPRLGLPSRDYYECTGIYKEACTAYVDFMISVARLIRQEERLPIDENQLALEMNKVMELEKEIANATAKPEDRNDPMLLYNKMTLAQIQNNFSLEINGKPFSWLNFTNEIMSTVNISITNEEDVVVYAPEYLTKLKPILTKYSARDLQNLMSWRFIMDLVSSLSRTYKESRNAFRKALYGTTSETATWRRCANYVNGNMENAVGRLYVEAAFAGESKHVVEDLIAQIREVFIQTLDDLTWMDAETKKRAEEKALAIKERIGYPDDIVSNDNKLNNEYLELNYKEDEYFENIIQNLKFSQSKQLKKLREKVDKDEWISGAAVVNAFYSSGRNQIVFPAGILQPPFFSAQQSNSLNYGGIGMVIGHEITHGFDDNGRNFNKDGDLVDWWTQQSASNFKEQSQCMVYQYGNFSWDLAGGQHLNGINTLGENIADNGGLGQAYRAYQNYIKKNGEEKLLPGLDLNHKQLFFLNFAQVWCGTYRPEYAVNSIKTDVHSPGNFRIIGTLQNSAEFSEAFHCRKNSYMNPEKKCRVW

`COCCOC[C@H](CC1(C(=O)N[C@H]2CC[C@@H](C(=O)O)CC2)CCCC1)C(=O)Oc1ccc2c(c1)CCC2` [Candoxatril]: on NEP (in vivo), the blood-pressure lowering effect entry is on record as “does not produce a stable blood-pressure lowering effect”; the “plasma ANP and cGMP levels” value was “dose-dependent increase”. Besides, the levels of endothelin entry at NEP (patients with heart failure) was “increase levels of endothelin significantly”. As for `O=C(N[C@H]1CCS[C@H]2CCC[C@@H](C(=O)O)N2C1=O)[C@@H](S)Cc1ccccc1` [omapatrilat], the incidence of angioedema entry with NEP and ACE was “severe incidence of angioedema”. Regarding `COc1cc2c(c(O)c1OC)C(=O)C[C@@H](c1cc(O)ccc1O)O2` [dioclein], the vasodilation result with PDE1 is recorded as “induce PKG-dependent vasodilation”.
